Test results reported in the NIST ThermoML archive (doi:10.1021/je700261b).
± gives the expanded uncertainty stated by the source.

Assay: xn = mol fraction of the nth substance listed
Details: Liquid

Structure (SMILES): CCCCO [butan-1-ol] + O=C=O
- mass density (342.94 K, 13074 kPa, x2 = 0.5965): 795.03 ± 0.57 kg/m3
- mass density (342.94 K, 14051 kPa, x2 = 0.5965): 797.49 ± 0.58 kg/m3
- mass density (342.94 K, 15068 kPa, x2 = 0.5965): 799.99 ± 0.59 kg/m3
- mass density (342.94 K, 15189 kPa, x2 = 0.8663): 716.88 ± 1.2 kg/m3
- mass density (342.94 K, 16052 kPa, x2 = 0.8663): 728.37 ± 0.83 kg/m3
- mass density (342.94 K, 16064 kPa, x2 = 0.5965): 802.35 ± 0.6 kg/m3
- mass density (342.94 K, 17059 kPa, x2 = 0.8663): 740.13 ± 0.8 kg/m3
- mass density (342.94 K, 17076 kPa, x2 = 0.5965): 804.68 ± 0.6 kg/m3
- mass density (342.94 K, 18027 kPa, x2 = 0.8663): 749.98 ± 0.76 kg/m3
- mass density (342.94 K, 18056 kPa, x2 = 0.5965): 806.85 ± 0.61 kg/m3
- mass density (342.94 K, 19037 kPa, x2 = 0.5965): 808.99 ± 0.61 kg/m3
- mass density (342.94 K, 19050 kPa, x2 = 0.8663): 759.3 ± 0.74 kg/m3
- mass density (342.94 K, 20036 kPa, x2 = 0.8663): 767.54 ± 0.73 kg/m3
- mass density (342.94 K, 20067 kPa, x2 = 0.5965): 811.18 ± 0.62 kg/m3
- mass density (342.94 K, 21031 kPa, x2 = 0.5965): 813.15 ± 0.62 kg/m3
- mass density (342.94 K, 21038 kPa, x2 = 0.8663): 775.36 ± 0.72 kg/m3
- mass density (342.94 K, 22050 kPa, x2 = 0.5965): 815.2 ± 0.63 kg/m3
- mass density (342.94 K, 22085 kPa, x2 = 0.8663): 782.79 ± 0.72 kg/m3
- mass density (342.94 K, 23030 kPa, x2 = 0.5965): 817.14 ± 0.64 kg/m3
- mass density (342.94 K, 23032 kPa, x2 = 0.8663): 789.07 ± 0.72 kg/m3
- mass density (342.94 K, 24031 kPa, x2 = 0.5965): 819.08 ± 0.64 kg/m3
- mass density (342.94 K, 24045 kPa, x2 = 0.8663): 795.41 ± 0.71 kg/m3
- mass density (342.94 K, 25028 kPa, x2 = 0.5965): 820.94 ± 0.65 kg/m3
- mass density (342.94 K, 25042 kPa, x2 = 0.8663): 801.31 ± 0.7 kg/m3
- mass density (343 K, 6024 kPa, x2 = 0.1842): 782.23 ± 0.51 kg/m3
- mass density (343 K, 7050 kPa, x2 = 0.1842): 783.43 ± 0.52 kg/m3
- mass density (343 K, 8037 kPa, x2 = 0.1842): 784.59 ± 0.53 kg/m3
- mass density (343 K, 9052 kPa, x2 = 0.1842): 785.73 ± 0.53 kg/m3
- mass density (343 K, 10057 kPa, x2 = 0.1842): 786.87 ± 0.54 kg/m3
- mass density (343 K, 11053 kPa, x2 = 0.1842): 787.96 ± 0.55 kg/m3
- mass density (343 K, 12027 kPa, x2 = 0.1842): 789.03 ± 0.56 kg/m3
- mass density (343 K, 13076 kPa, x2 = 0.1842): 790.12 ± 0.57 kg/m3
- mass density (343 K, 14026 kPa, x2 = 0.1842): 791.16 ± 0.58 kg/m3
- mass density (343 K, 15081 kPa, x2 = 0.1842): 792.24 ± 0.59 kg/m3
- mass density (343 K, 16028 kPa, x2 = 0.1842): 793.21 ± 0.6 kg/m3
- mass density (343 K, 17031 kPa, x2 = 0.1842): 794.24 ± 0.61 kg/m3
- mass density (343 K, 18020 kPa, x2 = 0.1842): 795.22 ± 0.62 kg/m3
- mass density (343 K, 19009 kPa, x2 = 0.1842): 796.2 ± 0.63 kg/m3
- mass density (343 K, 20030 kPa, x2 = 0.1842): 797.2 ± 0.64 kg/m3
- mass density (343 K, 21066 kPa, x2 = 0.1842): 798.2 ± 0.65 kg/m3
- mass density (343 K, 21978 kPa, x2 = 0.1842): 799.07 ± 0.65 kg/m3
- mass density (343 K, 23062 kPa, x2 = 0.1842): 800.09 ± 0.66 kg/m3
- mass density (343 K, 24031 kPa, x2 = 0.1842): 801.02 ± 0.67 kg/m3
- mass density (343 K, 25044 kPa, x2 = 0.1842): 801.97 ± 0.68 kg/m3
- mass density (352.77 K, 1022 kPa, x2 = 0.0251): 763.98 ± 0.47 kg/m3
- mass density (352.77 K, 2029 kPa, x2 = 0.0251): 765.11 ± 0.48 kg/m3
- mass density (352.77 K, 3006 kPa, x2 = 0.0251): 766.15 ± 0.49 kg/m3
- mass density (352.77 K, 4015 kPa, x2 = 0.0251): 767.17 ± 0.5 kg/m3
- mass density (352.77 K, 5041 kPa, x2 = 0.0251): 768.25 ± 0.51 kg/m3
- mass density (352.77 K, 5988 kPa, x2 = 0.0251): 769.24 ± 0.52 kg/m3
- mass density (352.77 K, 7026 kPa, x2 = 0.0251): 770.25 ± 0.53 kg/m3
- mass density (352.77 K, 8000 kPa, x2 = 0.0251): 771.2 ± 0.54 kg/m3
- mass density (352.77 K, 9059 kPa, x2 = 0.0251): 772.24 ± 0.55 kg/m3
- mass density (352.77 K, 10017 kPa, x2 = 0.0251): 773.14 ± 0.56 kg/m3
- mass density (352.77 K, 11016 kPa, x2 = 0.0251): 774.17 ± 0.57 kg/m3
- mass density (352.77 K, 12004 kPa, x2 = 0.0251): 775.04 ± 0.58 kg/m3
- mass density (352.77 K, 13003 kPa, x2 = 0.0251): 775.95 ± 0.59 kg/m3
- mass density (352.77 K, 14039 kPa, x2 = 0.0251): 776.91 ± 0.6 kg/m3
- mass density (352.77 K, 14988 kPa, x2 = 0.0251): 777.75 ± 0.61 kg/m3
- mass density (352.77 K, 16084 kPa, x2 = 0.0251): 778.74 ± 0.62 kg/m3
- mass density (352.77 K, 17004 kPa, x2 = 0.0251): 779.54 ± 0.63 kg/m3
- mass density (352.77 K, 18003 kPa, x2 = 0.0251): 780.41 ± 0.64 kg/m3
- mass density (352.77 K, 19004 kPa, x2 = 0.0251): 781.28 ± 0.65 kg/m3
- mass density (352.77 K, 20007 kPa, x2 = 0.0251): 782.15 ± 0.66 kg/m3
- mass density (352.77 K, 21029 kPa, x2 = 0.0251): 783.01 ± 0.67 kg/m3
- mass density (352.77 K, 22044 kPa, x2 = 0.0251): 783.86 ± 0.68 kg/m3
- mass density (352.77 K, 22995 kPa, x2 = 0.0251): 784.65 ± 0.69 kg/m3
- mass density (352.77 K, 24056 kPa, x2 = 0.0251): 785.52 ± 0.7 kg/m3
- mass density (352.77 K, 25098 kPa, x2 = 0.0251): 786.41 ± 0.72 kg/m3
- mass density (352.79 K, 18068 kPa, x2 = 0.9698): 596.97 ± 1.1 kg/m3
- mass density (352.79 K, 18999 kPa, x2 = 0.9698): 619.03 ± 1.1 kg/m3
- mass density (352.79 K, 20007 kPa, x2 = 0.9698): 639.88 ± 1 kg/m3
- mass density (352.79 K, 21053 kPa, x2 = 0.9698): 659.01 ± 1 kg/m3
- mass density (352.79 K, 22011 kPa, x2 = 0.9698): 674.59 ± 0.97 kg/m3
- mass density (352.79 K, 23058 kPa, x2 = 0.9698): 690 ± 0.95 kg/m3
- mass density (352.79 K, 24106 kPa, x2 = 0.9698): 703.93 ± 0.94 kg/m3
- mass density (352.79 K, 25050 kPa, x2 = 0.9698): 715.49 ± 0.92 kg/m3
- mass density (352.82 K, 6041 kPa, x2 = 0.1842): 772.14 ± 0.52 kg/m3
- mass density (352.82 K, 7041 kPa, x2 = 0.1842): 773.4 ± 0.52 kg/m3
- mass density (352.82 K, 8024 kPa, x2 = 0.1842): 774.6 ± 0.53 kg/m3
- mass density (352.82 K, 9042 kPa, x2 = 0.1842): 775.87 ± 0.54 kg/m3
- mass density (352.82 K, 10044 kPa, x2 = 0.1842): 777.07 ± 0.55 kg/m3
- mass density (352.82 K, 11026 kPa, x2 = 0.1842): 778.23 ± 0.56 kg/m3
- mass density (352.82 K, 12073 kPa, x2 = 0.1842): 779.44 ± 0.57 kg/m3
